Laboratory results taken from PubChem BioAssay AID1963867 (Molecular Pharmacology Branch, DTP, NCI, 2024).
Where “and” joins values, the source holds several entries; their conditions need not be identical. Equal entries are not always repeated.

System: KRAS-mutant PDC tumor spheroid with HUVEC/MSC, viability
Assay: Anticancer human tumor 327498-153-R-J2-PDC patient-derived uterine carcinosarcoma cell line growth inhibition [KRAS2]
Settings: for viability, T/C: stronger effect = lower value
Excerpt: Multicellular complex tumor spheroid response to RAS pathway inhibitors in combination with a targeted agents in patient-derived cell lines with oncogenic KRAS variants from multiple cancer types
A high-throughput screen of multi-cell type tumor spheroids was designed to identify active combinations of targeted small molecules and KRAS pathway inhibitors. Complex spheroids include a stromal component modeled by human endothelial cells (HUVEC) and fibroblasts modeled by human mesenchymal stem cells (MSCs). The concentration ranges selected for each drug and investigational agent were based upon clinically achievable concentrations if the clinical Cmax of the agent was known.
Compounds. The drugs and investigational agents: BI-3406 (NSC825286), BAY-293 (NSC824723), batoprotafib (TNO155; NSC825523), sotorasib (AMG 510; NSC818433), MRTX1257 (NSC819558), elimusertib (BAY 1895344; NSC800525), molibresib (GSK525762; NSC774829), temuterkib (LY3214996; NSC803410), venetoclax (NSC766270), alisertib (NSC759677), olaparib (NSC753686), talazoparib (NSC767125), erdafitinib (NSC781556), ipatasertib (NSC767898), cabozantinib (NSC761068), nintedanib (NSC756659), abemaciclib (NSC768073), docetaxel (NSC628503), trametinib (NSC758246), and sapanisertib (NSC764658) were obtained from the National Cancer Institute (NCI) Developmental Therapeutics Program Chemical Repository. The FDA-approved anticancer drug set is available from the Developmental Therapeutics Program. […] The stock solutions were prepared in dimethyl sulfoxide (DMSO, Sigma-Aldrich, St. Louis, MO, cat. D2650) at 800-fold the tested concentration and stored at -70 degrees C prior to their use. All drugs and investigational agents were tested over a range starting from a high concentration at or near the clinical Cmax and decreasing in half-log increments. If the clinical Cmax for an agent had not been determined, the highest concentration tested was 10 microM.
Cell Culture. All cells were maintained in an incubator at 37 degrees C and 5% CO2 with 95% humidity. The PDC lines were cultured according to standard operating procedures established by the NCI PDMR (https://pdmr.cancer.gov/sops/default.htm). Briefly, all PDCs were thawed and cultured in Matrigel-coated flasks prepared with a working solution of 1X Ham's F-12 nutrient mix, without supplementation (Invitrogen, Waltham, MA, cat. 11765054), 100 U/mL penicillin-streptomycin (Invitrogen, cat. 15140122), and 2.5% Matrigel (Corning Inc., Corning, NY, cat. 354248) for the first three passages. All PDCs were cultured in complete DMEM/F-12 media containing advanced DMEM/F-12 (Invitrogen, cat. 12634028), 4.9% defined fetal bovine serum, heat inactivated (HyClone Laboratories Inc., Logan, UT, cat. SH30070.03HI), 389 ng/mL hydrocortisone (Sigma-Aldrich, cat. H4001), 9.7 ng/mL human EGF recombinant protein (Invitrogen, cat. PHG0313), 23.4 microg/mL adenine (Sigma-Aldrich, cat. A2786), 97.3 U/mL penicillin-streptomycin (Invitrogen, cat. 15140122), 1.9 mM L-glutamine (Invitrogen, cat. 25030081), and 9.7 microM Y-27632 dihydrochloride (Tocris Bioscience, Bristol, United Kingdom, cat. 1254). The PDCs were cultured in complete DMEM/F12 media without 9.7 microM Y-27632 dihydrochloride for at least two passages prior to the screen. The established cell line HOP-62 was cultured in RPMI 1640 medium, HEPES (Invitrogen, cat. 22400105) with 10% defined fetal bovine serum (HyClone Laboratories Inc., cat. SH30070.03) and 2 mM L-glutamine (Invitrogen, cat. 25030081). The pooled donor HUVEC were cultured in endothelial cell growth medium 2 (PromoCell, Heidelberg, Germany, cat. C-22011) and the hMSC were cultured in mesenchymal stem cell growth medium 2 (PromoCell, cat. C-28009). For all experiments, HUVEC and hMSC were used at passages </=5, while the malignant cell lines were used at passages </=15. […]
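Further: spheroids exposed to agents for seven days before reading.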
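Wherever viability, T/C is given: 100% = DMSO vehicle wells so lower means fewer viable cells.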

Q: Which IC50 (compound alone, run of 07/12/2021) does the source give for C=CC(=O)N1CCN(c2nc(=O)n(-c3c(C)ccnc3C(C)C)c3nc(-c4c(O)cccc4F)c(F)cc23)C(C)C1 (stereo not drawn) here?
A: > 10000 nM and 1310 nM and 1220 nM

Q: C=CC(=O)N1CCN(c2nc(OCC3CCCN3C)nc3c2CCN(c2cccc4cccc(C)c24)C3)CC1CC#N (stereo not drawn) was tested. Which viability, T/C (compound 0.316 µM) did it give?
A: 57.6% [middle of 16 runs]

Q: And the viability, T/C (compound 1 µM)?
A: 49.2% [middle of 17 runs]

Q: What does the source list for CC(=O)OC12COC1CC(O)C1(C)C(=O)C(O)C3=C(C)C(OC(=O)C(O)C(NC(=O)OC(C)(C)C)c4ccccc4)CC(O)(C(OC(=O)c4ccccc4)C21)C3(C)C (stereo not drawn) + C=CC(=O)N1CCN(c2nc(=O)n(-c3c(C)ccnc3C(C)C)c3nc(-c4c(O)cccc4F)c(F)cc23)C(C)C1?
A: IC50 (curve of first compound, second compound 0.1 µM): < 10 nM; IC50 (curve of first compound, second compound 0.316 µM): < 10 nM; IC50 (curve of first compound, second compound 1 µM): < 10 nM; IC50 (curve of first compound, second compound 3.16 µM): < 10 nM; IC50 (curve of first compound, second compound 10 µM): < 10 nM; viability, T/C (second compound 0.1 µM, first compound 0.01 µM): 8.43%; viability, T/C (second compound 0.1 µM, first compound 0.0316 µM): 6.6%; viability, T/C (second compound 0.1 µM, first compound 0.1 µM): 5.43%; viability, T/C (second compound 0.1 µM, first compound 0.316 µM): 6.55%; viability, T/C (second compound 0.1 µM, first compound 1 µM): 9.48%; viability, T/C (second compound 0.1 µM, first compound 3.16 µM): 11.1%; viability, T/C (second compound 0.316 µM, first compound 0.01 µM): 7.73%; viability, T/C (second compound 0.316 µM, first compound 0.0316 µM): 6.11%; viability, T/C (second compound 0.316 µM, first compound 0.1 µM): 5.72%; viability, T/C (second compound 0.316 µM, first compound 0.316 µM): 7.34%; viability, T/C (second compound 0.316 µM, first compound 1 µM): 8.77%; viability, T/C (second compound 0.316 µM, first compound 3.16 µM): 13.1%; viability, T/C (second compound 1 µM, first compound 0.01 µM): 9.81%; viability, T/C (second compound 1 µM, first compound 0.0316 µM): 5.71%; viability, T/C (second compound 1 µM, first compound 0.1 µM): 10.5%; viability, T/C (second compound 1 µM, first compound 0.316 µM): 8.73%; viability, T/C (second compound 1 µM, first compound 1 µM): 8.75%; viability, T/C (second compound 1 µM, first compound 3.16 µM): 10.7%; viability, T/C (second compound 3.16 µM, first compound 0.01 µM): 9.54%; viability, T/C (second compound 3.16 µM, first compound 0.0316 µM): 7.63%; viability, T/C (second compound 3.16 µM, first compound 0.1 µM): 7.71%; viability, T/C (second compound 3.16 µM, first compound 0.316 µM): 10.1%; viability, T/C (second compound 3.16 µM, first compound 1 µM): 11.2%; viability, T/C (second compound 3.16 µM, first compound 3.16 µM): 12.2%; viability, T/C (second compound 10 µM, first compound 0.01 µM): 11.1%; viability, T/C (second compound 10 µM, first compound 0.0316 µM): 9.72%; viability, T/C (second compound 10 µM, first compound 0.1 µM): 12.5%; viability, T/C (second compound 10 µM, first compound 0.316 µM): 13.3%; viability, T/C (second compound 10 µM, first compound 1 µM): 12.3%; viability, T/C (second compound 10 µM, first compound 3.16 µM): 12.8%
